Source: US12214092B2, “Systems and methods for treating biological fluids” (Cerus Corporation, priority 2017, dated 2025)

Columns and labels:
platelets = assay: Platelet quality, platelets in 100% plasma: 75 μM amotosalen + 340 nm (~6.4 or ~7.2 J/cm^2) or 150 μM + INT-100 (~3.6 J/cm^2, with CAD); format: cell-based
[1] = Amotosalen concentration in platelets in 100% plasma (75 μM/340 nm or 150 μM/INT-100), HPLC; format: physicochemical
S. epidermidis = assay: Amotosalen and UV light (265-385 nm LEDs) treatment of S. epidermidis in plasma, colony forming unit assay; format: cell-based; settings: 15 μM amotosalen, ~3 J/cm^2, plasma
Source text: This system comprised single arrays facing (e.g., opposing) a platform positioned for the illumination of biological fluids placed on the platform (see e.g., FIG. 5). System controls provided for adjustment of the LEDs during treatment of the biological fluid samples, controlling both the timing and intensity of illumination by the LEDs to achieve a desired light UV light dose. Evaluation of photochemical conversion, photoproduct formation, pathogen inactivation, and plasma and/or platelet quality parameters are performed for each light source wavelength as described previously. In one study using the device, photochemical inactivation of various bacteria were tested for each of the above-referenced LEDs together with amotosalen. The bacteria included E. coli (Gram negative), S. epidermidis (Gram positive), and P. acnes (anaerobe). As there are known germicidal effects of ultraviolet light with wavelengths in the UVC and UVB range, the study was controlled to determine for each LED wavelength the total inactivation levels, as well as inactivation levels specifically resulting from the UV light (without added amotosalen) or the photochemical treatment process itself.

[2] = S-59 photoconversion and photoproducts in platelets in 65% PAS III/35% plasma, 150 μM S-59, HPLC; settings: for % Residual S-59: 3x (~10.8 J/cm^2)
Experimental: Platelets collected in PAS/Plasma (65% PAS III/35% Plasma) were pooled and split into three 285 mL units for the study. Amotosalen (S-59) was added to a concentration of 150 μM, and the units were illuminated one time (˜3.6 J/cm^2 total dose), two times (˜7.2 J/cm^2 total dose), or three times (˜10.8 J/cm^2 total dose) with the narrow band 340 nm LEDs or 365 nm LEDs using the device of Example 1, or with the INT-100 device. Efficiency of S-59 photoconversion, as well as photoproducts formation, was assessed post-UVA illumination by HPLC as in previous Examples.
HPLC analysis of post-illumination samples was used to determine area counts and relative levels for photoproducts generated from the various treatment conditions.

## Cc1oc2c(C)c3oc(=O)cc(C)c3cc2c1COCCN [S-59, 3-(2-aminoethoxymethyl)-2,5,9-trimethylfuro[3,2-g]chromen-7-one]
platelets; 340/~6.4, D5
  Extent of Shape Change (ESC): 22.15
  Hypotonic Shock Response (HSR): 56.50
  Morphology (Kunicki score): 271.50
  P-selectin (CD62P): 51.70
  pCO2: 35.00 mmHg
  pH @ 22° C.: 7.15
  pH @ 37° C.: 6.92
  pO2: 59.75 mmHg
platelets; 340/~6.4, D7
  Extent of Shape Change (ESC): 16.45
  Hypotonic Shock Response (HSR): 45.98
  Morphology (Kunicki score): 259.00
  P-selectin (CD62P): 67.65
  pCO2: 30.95 mmHg
  pH @ 22° C.: 6.95
  pH @ 37° C.: 6.72
  pO2: 61.80 mmHg
platelets; 340/~6.4, Post-UVA
  pCO2: 43.60 mmHg
  pH @ 22° C.: 7.30
  pH @ 37° C.: 7.07
  pO2: 42.90 mmHg
platelets; 340/~6.4, Pre-UVA
  Extent of Shape Change (ESC): 20.60
  Hypotonic Shock Response (HSR): 45.40
  Morphology (Kunicki score): 265.50
  P-selectin (CD62P): 31.95
  pCO2: 55.20 mmHg
  pH @ 22° C.: 7.29
  pH @ 37° C.: 7.06
  pO2: 37.60 mmHg
platelets; 340/~7.2, D5
  Extent of Shape Change (ESC): 26.73
  Hypotonic Shock Response (HSR): 51.87
  Morphology (Kunicki score): 287.67
  P-selectin (CD62P): 45.00
  pCO2: 37.47 mmHg
  pH @ 22° C.: 7.11
  pH @ 37° C.: 6.88
  pO2: 49.33 mmHg
platelets; 340/~7.2, D7
  Extent of Shape Change (ESC): 19.47
  Hypotonic Shock Response (HSR): 49.47
  Morphology (Kunicki score): 254.67
  P-selectin (CD62P): 56.93
  pCO2: 32.70 mmHg
  pH @ 22° C.: 6.94
  pH @ 37° C.: 6.72
  pO2: 56.07 mmHg
platelets; 340/~7.2, Post-UVA
  pCO2: 47.23 mmHg
  pH @ 22° C.: 7.32
  pH @ 37° C.: 7.09
  pO2: 32.93 mmHg
platelets; 340/~7.2, Pre-UVA
  Extent of Shape Change (ESC): 23.50
  Hypotonic Shock Response (HSR): 49.67
  Morphology (Kunicki score): 279.33
  P-selectin (CD62P): 27.77
  pCO2: 54.43 mmHg
  pH @ 22° C.: 7.31
  pH @ 37° C.: 7.08
  pO2: 31.77 mmHg
platelets; INT-100, D5
  Extent of Shape Change (ESC): 25.20
  Hypotonic Shock Response (HSR): 55.10
  Morphology (Kunicki score): 265.67
  P-selectin (CD62P): 39.07
  pCO2: 31.83 mmHg
  pH @ 22° C.: 7.16
  pH @ 37° C.: 6.93
  pO2: 69.77 mmHg
platelets; INT-100, D7
  Extent of Shape Change (ESC): 19.82
  Hypotonic Shock Response (HSR): 46.00
  Morphology (Kunicki score): 274.67
  P-selectin (CD62P): 58.77
  pCO2: 28.47 mmHg
  pH @ 22° C.: 6.96
  pH @ 37° C.: 6.74
  pO2: 70.37 mmHg
platelets; INT-100, Post-UVA
  pCO2: 54.60 mmHg
  pH @ 22° C.: 7.17
  pH @ 37° C.: 6.94
  pO2: 62.87 mmHg
platelets; INT-100, Pre-UVA
  Extent of Shape Change (ESC): 23.50
  Hypotonic Shock Response (HSR): 49.67
  Morphology (Kunicki score): 279.33
  P-selectin (CD62P): 27.77
  pCO2: 54.43 mmHg
  pH @ 22° C.: 7.31
  pH @ 37° C.: 7.08
  pO2: 31.77 mmHg
[1]; 340/~6.4 (75 μM input)
  % Residual S-59: 2.5%
[1]; 340/~6.4 (75 μM input), Post-UVA
  S-59 concentration: 2.4 µM
[1]; 340/~6.4 (75 μM input), Pre-UVA
  S-59 concentration: 93.3 µM
[1]; 340/~7.2 (75 μM input)
  % Residual S-59: 2.0%
[1]; 340/~7.2 (75 μM input), Post-UVA
  S-59 concentration: 1.9 µM
[1]; 340/~7.2 (75 μM input), Pre-UVA
  S-59 concentration: 94.0 µM
[1]; INT-100 (150 μM input), Post-CAD
  S-59 concentration: 0.2 µM
[1]; INT-100 (150 μM input), Pre-UVA
  S-59 concentration: 173.2 µM
[1]; INT-100 ~3.6 J/cm^2 (150 μM input)
  % Residual S-59: 40.1%
[1]; INT-100 ~3.6 J/cm^2 (150 μM input), Post-UVA
  S-59 concentration: 69.4 µM
S. epidermidis; 265 nm
  Log reduction from S-59: 0.89 log
  Log reduction total: 5.23 log
S. epidermidis; 280 nm
  Log reduction from S-59: 1.56 log
  Log reduction total: 5.02 log
S. epidermidis; 310 nm
  Log reduction from S-59: 6.68 log
  Log reduction total: 7.19 log
S. epidermidis; 325 nm
  Log reduction from S-59: 7.17 log
  Log reduction total: 7.18 log
S. epidermidis; 340 nm
  Log reduction from S-59: 7.18 log
  Log reduction total: 7.28 log
S. epidermidis; 365 nm
  Log reduction from S-59: 7.32 log
  Log reduction total: 7.26 log
S. epidermidis; 385 nm
  Log reduction from S-59: 1.85 log
  Log reduction total: 1.76 log
[2]; 340 nm LED, ~3.6 J/cm^2
  S-59 concentration post-illumination: 9 µM
[2]; 340 nm LED, ~7.2 J/cm^2
  S-59 concentration post-illumination: 2 µM
[2]; 340 nm LED, ~10.8 J/cm^2, <LOQ
  S-59 concentration post-illumination: 0.98 µM
[2]; 340 nm, 0 J/cm^2
  HPLC area counts: 1826
[2]; 340 nm
  % Residual S-59: 0.5%
[2]; 340 nm, 3.6 J/cm^2
  HPLC area counts: 106
[2]; 340 nm, 7.2 J/cm^2
  HPLC area counts: 24
[2]; 340 nm, 10.8 J/cm^2
  HPLC area counts: 11
[2]; 365 nm LED, ~3.6 J/cm^2
  S-59 concentration post-illumination: 42 µM
[2]; 365 nm LED, ~7.2 J/cm^2
  S-59 concentration post-illumination: 15 µM
[2]; 365 nm LED, ~10.8 J/cm^2
  S-59 concentration post-illumination: 7 µM
[2]; 365 nm, 0 J/cm^2
  HPLC area counts: 1753
[2]; 365 nm
  % Residual S-59: 4.9%
[2]; 365 nm, 3.6 J/cm^2
  HPLC area counts: 514
[2]; 365 nm, 7.2 J/cm^2
  HPLC area counts: 183
[2]; 365 nm, 10.8 J/cm^2
  HPLC area counts: 84
[2]; INT 100, 0 J/cm^2
  HPLC area counts: 1753
[2]; INT 100
  % Residual S-59: 3.1%
[2]; INT 100, 3.6 J/cm^2
  HPLC area counts: 396
[2]; INT 100, 7.2 J/cm^2
  HPLC area counts: 129
[2]; INT 100, 10.8 J/cm^2
  HPLC area counts: 56
[2]; INT-100, ~3.6 J/cm^2
  S-59 concentration post-illumination: 32 µM
[2]; INT-100, ~7.2 J/cm^2
  S-59 concentration post-illumination: 11 µM
[2]; INT-100, ~10.8 J/cm^2
  S-59 concentration post-illumination: 5 µM
